# Measured values reported in patent US20130344140A1, “NOVEL PHARMACEUTICAL COMBINATIONS AND METHODS FOR TREATING CANCER” (Agency for Science, Technology and Research, priority 2011, published 2013).
# “Also recorded” adds a separate entry of the source. Where two headings read alike, the source gives them in different places.
# What was measured:
# ATM = ATM / DNA damage checkpoint dependence of VX-680-induced G2 arrest (western blot, DNA FACS profiles); assay type: cell-based
# Experimental: For western blotting, cell extracts were prepared using NP-40 lysis buffer (50 mM Tris-HCl (pH 8.0), 150 mM NaCl, 1% NP-40, 5 mM EDTA supplemented with protease and phosphatase inhibitor cocktails (Sigma).
# HCT116p53+/+ cells = assay: Colony survival assay, HCT116p53+/+; assay type: cell-based; conditions: pretreated with nutlin-3, versus VX-680 alone
# Experimental: (§1) Colonies were counted 2 weeks after recovery in drug-free media. Cells were fixed with glutaraldehyde and stained with crystal violet. Plates are scanned and colonies were counted with an automated image analyzer. Three independent experiments were performed for each cell line.
# (§2) Each data point represents the mean±S.D.
# (§3) A total of 1000 cells were plated on each 10 cm plate and allowed to adhere overnight. […] After 48 h, cells were washed and recovered in fresh media for 12 days. Cells were then fixed in 6% glutaraldehyde (Sigma) and stained with crystal violet. Colonies were counted using GelCount™ (Oxford Optronix, Oxford, England). Each condition was carried out in triplicate.
# A549 cells [1] = assay: Colony survival assay, A549; assay type: cell-based; set-up: enhancement of the fraction of surviving colonies: dose or concentration left out as unconfirmed
# Experimental: as §1, §2, §3
# [2] = system: MDA-MB 468 and HCT116 p53−/−; assay: Annexin V apoptosis assay, p53-compromised cell lines; assay type: cell-based; conditions: p53-compromised cells pretreated with nutlin-3 before VX-680
# Experimental: Cells were then harvested and stained for annexin V to detect apoptotic cells.
# For analysis of apoptosis, cells were harvested without fixation. Apoptosis was evaluated using the annexin V (fluorescein isothiocyanate (FITC))-propidium iodide binding assay (Roche, Indianapolis, Ind., USA). The extent of apoptosis was quantified as a percentage of annexin V-positive cells over the total cell population. Flow cytometric analysis was performed on a BD LSR II System (BD Biosciences, Stockholm, Sweden). Data were analyzed using FlowJo software and ModFit LT (Verity Software House, Topsham, Me., USA).
# [3] = system: HCT116p53+/+ (green) and HCT116p53−/− (red) cells; assay: Co-culture of HCT116p53+/+ GFP and HCT116p53−/− RFP cells; assay type: cell-based; conditions: mixed population pretreated with nutlin-3 then VX-680, 5 days after drugs removal
# From the text: (e) is a schematic illustration of fluorescent microscopy images of HCT116 p53+/+ and p53−/− cells that were transduced with recombinant lentiviruses carrying GFP and RFP genes, respectively. The cells were selected in zeocin for 2 weeks to achieve the stable cell lines, HCT116 p53+/+GFP and HCT116 p53−/− RFP. Equal numbers of HCT116 p53+/+GFP and p53−/− RFP were mixed and seeded to achieve 30% growth confluency. […] Cells were then washed twice with drug-free media and allowed to recover for 5 days in fresh complete media. Microscopy images were taken with Deltavision (Axio). […] Insets 1 and 2 show higher magnification of the images on the left.
# We further studied the responses of p53 wild-type and p53-deficient cells in co-culture system, in which both cell types were cultured together for the duration of the experiment. HCT116p53+/+ and the HCT116p53−/− cells were distinguished using green fluorescent protein (GFP) and red fluorescent protein (RFP) fluorescent markers. Equal numbers of HCT116p53+/+ (green) and HCT116p53−/− (red) cells were mixed and plated in 10 cm plates, before exposure to a similar drug dosage regimen as described in FIG. 6c.
# HCT116 p53+/+ cells = assay: Cell cycle analysis of HCT116 p53+/+ cells (nutlin-3, VX-680); assay type: cell-based; conditions: HCT116p53+/+
# Experimental: (a) is a comparison of the DNA profiles of P53+/+ and p53−/− cells after treatment with VX-680. HCT116 p53+/+ and p53−/− cells were incubated with 200 nM VX-680 and cells were harvested at the indicated time points for analysis of cell cycle distribution.
# (b) is a comparison of the DNA profiles of p53+/+ and p53−/− cells with pre-treatment of Nutlin before incubation with VX-680.
# p53-deficient HCT116 = assay: Colony survival assay, p53-deficient HCT116; assay type: cell-based; conditions: p53-deficient HCT116, nutlin-3 pretreatment before VX-680
# Experimental: as §1, §2, §3
# A549 cells [4] = assay: Micronuclei formation and γH2AX staining (immunofluorescence microscopy) in A549 cells; assay type: cell-based; conditions: A549; nutlin-3 only, or nutlin-3 16 h before VX-680 48 h
# Experimental: Cells were fixed and stained for γH2AX (green) as described in Materials and Methods in the Examples. Nuclei were counterstained with DAPI blue. Visualization of nuclei and γH2AX positive foci was done by fluorescence microscopy.
# Indirect immunofluorescence was carried out as described previously.^14 g-H2AX (Novus Biologicals, Littleton, Colo., USA, NB 100-383) and anti-rabbit Alexa 488-coupled secondary antibody (Molecular Probes, Carlsbad, Calif., USA) were used. Nuclei were counterstained with Hoechst 33342 (Molecular Probes). Immunofluorescence was visualized using Axiolmager Z1 (Zeiss, Gottingen, Germany).
# A549 cells [5] = assay: Cell cycle / BrdU analysis of A549 cells pretreated with nutlin-3 before VX-680; assay type: cell-based
# Experimental: Cells were treated with 200 nM VX-680 for 24 h and incubated with […] BrdU for 30 min. […] BrdU-positive cells in untreated control sample (upper left panel) and BrdU-positive cells that are […] DNA (endoreduplicating cells) (upper right panel) are highlighted in the boxes and the percentages over the total cell population are indicated.
# (b) is a schematic diagram showing the timing and order of addition of drugs. At 48 h after VX-680 treatment, cells were washed in drug-free media and incubated in drug-free media for another 48, 96 or 120 h. Cell cycle distribution was analyzed by flow cytometry. Also shown are the DNA profiles obtained using the drug treatment protocol depicted in (a).
# Cells were incubated in DMEM containing […] BrdU for 30 min in a 37° C./5% CO2 incubator. Detection of BrdU-labeled cells was performed using the In Situ Cell Proliferation Kit from Roche. In brief, cells were harvested and fixed using a 70% ethanol/50 mM Glycine (pH 2.0) on ice. Cells were pelleted and resuspended in the HCl-denaturation solution at room temperature for 20 min. Cells were then pelleted and 50 μl anti-BrdU-FLUOS antibody was added to the cells and incubated for 45 min at 37° C. in a humidified chamber. For staining of total DNA, 7-AAD was added to the cells, followed by incubation at room temperature for 10 min. Cells were analyzed immediately using flow cytometry (BD LSR II System).
# human keratinocytes = conditions: for tetraploidy / endoreduplication after nutlin pretreatment: keratinocytes pretreated with nutlin-3 16 h, then VX-680 (200 nM) 48 h
# Experimental: Primary human keratinocytes were purchased from Invitrogen and cultured in defined keratinocyte serum-free media (Invitrogen). All cell lines were cultured in a CO2 incubator (5% CO2 and 21% O2) at 37° C.
# For analysis of cell cycle distribution, cells were harvested and fixed in 70% ethanol/PBS solution. Cells were stained in propidium-iodide containing solution (25 μg/ml propidium iodide supplemented with 1 mg/ml RNase A, in PBS (pH 7.8); Sigma Chemical, St Louis, Mo., USA) for 15 min at room temperature.
structure (smiles),measurement,setting,value
O=c1cc(-c2cccc3c2Sc2ccccc2S3)oc(N2CCOCC2)c1 [KU55933],γH2AX and ATM-S1981 phosphorylation in response to doxorubicin,ATM; KU55933 with 1 μM doxorubicin,abrogates the observed phosphorylation in a dose-dependent manner; also recorded: clearly reduced
same,effect on VX-680-induced G2 arrest,ATM; pre-treatment with KU55933 before VX-680,does not abrogate
COc1cccc2c1C(=O)c1c(O)c3c(c(O)c1C2=O)C[C@@](O)(C(=O)CO)C[C@@H]3O[C@H]1C[C@H](N)[C@H](O)[C@H](C)O1 [doxorubicin],"phospho-S1981 ATM, phospho-H2AX, phospho-S15 p53",ATM; 1 μM doxorubicin,accumulation
COc1ccc(C2=N[C@@H](c3ccc(Cl)cc3)[C@@H](c3ccc(Cl)cc3)N2C(=O)N2CCNC(=O)C2)c(OC(C)C)c1 [nutlin-3],better survival (colony formation),HCT116p53+/+ cells,up to 15 fold
same,enhancement of the fraction of surviving colonies,"A549 cells [1]; A549, pretreated with for 16 h before VX-680 48 h, versus VX-680 alone",up to 20 fold
same,number of surviving colonies,A549 cells [1]; nutlin alone,moderately decreases
same,degree of apoptosis with nutlin-3 pretreatment,[2],no significant difference
same,number of HCT116p53+/+ (green) cells versus HCT116p53−/− (red) cells,[3],far more than
same,cell cycle arrest by nutlin,HCT116 p53+/+ cells,induced an arrest
same,protection from VX-680-induced endoreduplication by nutlin pretreatment,HCT116 p53+/+ cells; nutlin-3 16 h then VX-680 (200 nM) and nutlin-3 48 h,protects
same,colony survival rate,p53-deficient HCT116,did not affect
same,frequency of micronuclei and γH2AX staining,A549 cells [4],low frequency
same,cell cycle arrest of nutlin-3-pretreated cells,"A549 cells [5]; A549, nutlin-3 (5 µM) before VX-680 treatment, 48 h VX-680, confirmed by BrdU assay",arrested cells even after 48 h of VX-680 exposure
same,cell cycle arrest of nutlin-3-pretreated cells,"A549 cells [5]; A549, nutlin-3 (5 μM) followed by VX-680 (200 nM)",remained arrested at G1
same,DNA profile after recovery in drug-free media,"A549 cells [5]; A549, nutlin-3 pretreatment then VX-680, recovered in drug-free media",normal diploid DNA profile
same,cellular viability,human keratinocytes,high cellular viability
same,tetraploidy / endoreduplication after nutlin pretreatment,human keratinocytes; listed as Nutlin,did not show significant tetraploidy
same,tetraploidy / endoreduplication after nutlin pretreatment,human keratinocytes; listed as Nutlin-3,protects primary human keratinocytes from endoreduplication
